Assay results: US8114880B2, “Piperidine or piperazine substituted tetrahydro-naphthalene-1-carboxylic acid MTP inhibiting compounds” (Janssen Pharmaceutica N.V., priority 2006, dated 2012)

How the values were obtained:
[1] = tested on: HepG2 cells; test: Quantification of the secretion of ApoB; assay type: cell-based; settings: 24 hours of incubation; for IC50: Homo sapiens, HepG2, 24 h, pIC50 = -log IC50
Method: HepG2 cells were cultured in 24-well plates in MEM Rega 3 containing 10% fetal calf serum. At 70% confluency, the medium was changed and the test compound or carrier (DMSO, 0.4% final concentration) was added. After 24 hours of incubation, the medium was transferred to Eppendorf tubes and cleared by centrifugation. A sheep antibody directed against either apoB was added to the supernatant and the mixture was kept at 8° C. for 24 hours. Then, rabbit anti-sheep antibody was added and the immune complex was allowed to precipitate for 24 hours at 8° C. The immunoprecipitate was pelleted by centrifugation for 25 minutes at 1320 g and washed twice with a buffer containing 40 mM Mops, 40 mM NaH2PO4, 100 mM NaF, 0.2 mM DTT, 5 mM EDTA, 5 mM EGTA, 1% Triton-X-100, 0.5% sodium deoxycholate (DOC), 0.1% SDS, 0.2 μM leupeptin and 0.2 μM PMSF. Radioactivity in the pellet was quantified by liquid scintillation counting. The IC50 values are usually converted to pIC50 values (=−log IC50 value) for ease of use.

[2] = target: MTP (Homo sapiens, UniProt P55157); test: MTP assay (triglyceride transfer from donor to acceptor vesicles); assay type: biochemical; settings: MTP activity, percent triglyceride transfer from donor to acceptor vesicles, 37° C.
Method: MTP activity was measured using an assay similar to one described by J. R. Wetterau and D. B. Zilversmit in Chemistry and Physics of Lipids, 38, 205-222 (1985). To prepare the donor and acceptor vesicles, the appropriate lipids in chloroform were put into a glass test tube and dried under a stream of nitrogen. A buffer containing 15 mM Tris-HCl pH 7.5, 1 mM EDTA, 40 mM NaCl, 0.02% NaN3 (assay buffer) was added to the dried lipid. The mixture was vortexed briefly and the lipids were then allowed to hydrate for 20 minutes on ice. Vesicles were then prepared by bath sonication (Branson 2200) at room temperature for maximum 15 minutes. Butylated hydroxytoluene was included in all vesicle preparations at a concentration of 0.1%. The lipid transfer assay mixture contained donor vesicles (40 nmol phosphatidylcholine, 7.5 mol % of cardiolipin and 0.25 mol % glycerol tri [1-^14C]-oleate), acceptor vesicles (240 nmol phosphatidylcholine) and 5 mg BSA in a total volume of 675 μl in a 1.5 ml microcentrifuge tube. Test compounds were added dissolved in DMSO (0.13% final concentration). After 5 minutes of pre-incubation at 37° C., the reaction was started by the addition of MTP in 100 μl dialysis buffer. The reaction was stopped by the addition of 400 μl DEAE-52 cellulose pre-equilibrated in 15 mM Tris-HCl pH 7.5, 1 mM EDTA, 0.02% NaN3 (1:1, vol/vol). The mixture was agitated for 4 minutes and centrifuged for 2 minutes at maximum speed in an Eppendorf centrifuge (4° C.) to pellet the DEAE-52-bound donor vesicles. An aliquot of the supernatant containing the acceptor liposomes was counted and the [^14C]-counts were used to calculate the percent triglyceride transfer from donor to acceptor vesicles.

Chain of MTP (P55157 19-894, species assumed): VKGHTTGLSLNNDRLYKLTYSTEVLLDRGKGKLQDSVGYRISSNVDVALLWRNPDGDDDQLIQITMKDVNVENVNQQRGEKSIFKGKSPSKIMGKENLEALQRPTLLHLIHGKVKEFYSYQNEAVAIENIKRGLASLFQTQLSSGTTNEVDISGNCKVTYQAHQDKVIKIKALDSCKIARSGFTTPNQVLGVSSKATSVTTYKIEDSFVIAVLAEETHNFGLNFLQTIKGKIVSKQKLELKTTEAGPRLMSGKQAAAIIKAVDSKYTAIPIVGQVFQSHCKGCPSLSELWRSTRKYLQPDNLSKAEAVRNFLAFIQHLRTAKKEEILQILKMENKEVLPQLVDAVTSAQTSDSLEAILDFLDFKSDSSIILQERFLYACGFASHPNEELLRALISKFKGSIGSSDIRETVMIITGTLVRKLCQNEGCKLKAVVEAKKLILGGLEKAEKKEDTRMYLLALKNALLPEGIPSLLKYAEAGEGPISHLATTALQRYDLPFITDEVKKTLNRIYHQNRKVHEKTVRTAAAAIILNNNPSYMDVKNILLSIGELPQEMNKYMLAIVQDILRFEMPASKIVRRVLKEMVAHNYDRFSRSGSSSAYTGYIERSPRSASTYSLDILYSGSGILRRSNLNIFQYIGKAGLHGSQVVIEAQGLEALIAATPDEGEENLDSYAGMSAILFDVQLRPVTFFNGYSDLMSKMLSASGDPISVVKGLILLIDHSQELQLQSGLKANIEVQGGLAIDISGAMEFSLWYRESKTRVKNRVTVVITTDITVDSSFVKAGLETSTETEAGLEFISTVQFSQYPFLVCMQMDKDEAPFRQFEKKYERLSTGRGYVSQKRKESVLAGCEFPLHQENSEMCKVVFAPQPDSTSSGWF
Chain of MTP (P07237 18-508 partner, species assumed): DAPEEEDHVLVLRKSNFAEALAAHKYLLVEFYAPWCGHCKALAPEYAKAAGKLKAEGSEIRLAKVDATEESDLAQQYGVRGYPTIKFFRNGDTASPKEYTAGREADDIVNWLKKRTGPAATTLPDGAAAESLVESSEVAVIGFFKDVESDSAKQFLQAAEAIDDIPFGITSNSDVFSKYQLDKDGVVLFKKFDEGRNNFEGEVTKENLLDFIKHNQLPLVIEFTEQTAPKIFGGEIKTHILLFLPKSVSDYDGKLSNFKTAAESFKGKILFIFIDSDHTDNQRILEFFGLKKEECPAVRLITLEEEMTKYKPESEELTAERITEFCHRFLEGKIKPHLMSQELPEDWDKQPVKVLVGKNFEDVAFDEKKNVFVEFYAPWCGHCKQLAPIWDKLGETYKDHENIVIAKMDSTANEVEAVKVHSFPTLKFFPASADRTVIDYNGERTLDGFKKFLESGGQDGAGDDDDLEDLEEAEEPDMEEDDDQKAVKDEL

Structure (SMILES) | IC50 [1] | IC50 [2] | other results
CCNC(=O)[C@]1(c2ccccc2)CC[C@@H](C(=O)N2CCC(NC(=O)c3ccccc3OC)CC2)c2ccccc21 (racemic) [Co. No. 7] | 2.28 nM | 6.47 nM | –
CCOC(=O)[C@]1(c2ccccc2)CC[C@@H](C(=O)N2CCC(NC(=O)c3ccccc3OC)CC2)c2ccccc21 (racemic) [Co. No. 26] | 6.37 nM | 1.92 nM | –
CCOC(=O)[C@@]1(c2ccccc2)CC[C@H](C(=O)N2CCC(NC(=O)c3ccccc3)CC2)c2ccccc21 (single isomer, unassigned) [Co. No. 32] | 7.52 nM | 1.9 nM | –
CCNC(=O)[C@@]1(c2ccccc2)CC[C@H](C(=O)N2CCC(NC(=O)c3ccccc3OC)CC2)c2ccccc21 (single isomer, unassigned) [Co. No. 39] | 3.13 nM | 3 nM | –
COc1ccccc1C(=O)NC1CCN(C(=O)[C@@H]2CC[C@](C(N)=O)(c3ccccc3)c3ccccc32)CC1 (single isomer, unassigned) [Co. No. 43] | 267 nM | 90.4 nM | –
COc1ccccc1C(=O)NC1CCN(C(=O)[C@H]2CC[C@@](C(N)=O)(c3ccccc3)c3ccccc32)CC1 (single isomer, unassigned) [Co. No. 44] | 106 nM | > 1000 nM | –
O=C(NC1CCN(CC2CCC(C(=O)NCc3ccccc3)(c3ccccc3)c3ccccc32)CC1)c1ccccc1 (centres unmarked) [Co. No. 1] | 1840 nM | – | –
O=C(NC1CCN(C(=O)C2CCC(C(=O)Nc3ccccc3)(c3ccccc3)c3ccccc32)CC1)c1ccccc1 (centres unmarked) [Co. No. 2] | 74.5 nM | – | –
O=C(NC1CCN(C(=O)C2CCC(C(=O)NCc3ccccc3)(c3ccccc3)c3ccccc32)CC1)c1ccccc1 (centres unmarked) [Co. No. 3] | 80.5 nM | 17.7 nM | –
CCCNC(=O)C1(c2ccccc2)CCC(C(=O)N2CCC(NC(=O)c3ccccc3)CC2)c2ccccc21 (centres unmarked) [Co. No. 4] | 228 nM | 42.4 nM | –
CCCNC(=O)C1(c2ccccc2)CCC(CN2CCC(NC(=O)c3ccccc3-c3ccc(C(F)(F)F)cc3)CC2)c2ccccc21 (centres unmarked) [Co. No. 6] | 20.4 nM | 16 nM | –
CCNC(=O)[C@]1(c2ccccc2)CC[C@@H](C(=O)N2CCC(NC(=O)c3ccccc3-c3ccc(C(F)(F)F)cc3)CC2)c2ccccc21 [Co. No. 10] | 1.85 nM | 1.96 nM | –
C=CCOC(=O)[C@@]1(c2ccccc2)CC[C@H](C(=O)N2CCC(NC(=O)c3ccccc3OC)CC2)c2ccccc21 [Co. No. 45] | 2.63 nM | – | –
C=CCOC(=O)[C@]1(c2ccccc2)CC[C@@H](C(=O)N2CCC(NC(=O)c3ccccc3OC)CC2)c2ccccc21 [Co. No. 46] | – | – | pIC50 ([1]; pIC50 = -log IC50, listed as 46): 6.649
Cn1cccc(C(=O)NC2CCN(C(=O)[C@H]3CC[C@@](C(=O)N4C[C@H](O)C[C@H]4C(=O)O)(c4ccccc4)c4ccccc43)CC2)c1=O [Co. No. 192] | – | > 10000 nM | –
Cn1cccc(C(=O)NC2CCN(C(=O)[C@H]3CC[C@@](C(=O)N[C@@H](C(=O)O)c4ccccc4)(c4ccccc4)c4ccccc43)CC2)c1=O [Co. No. 193] | – | > 10000 nM | –
Cn1cccc(C(=O)NC2CCN(C(=O)[C@H]3CC[C@@](C(=O)N[C@@H](Cc4ccccc4)C(=O)O)(c4ccccc4)c4ccccc43)CC2)c1=O [Co. No. 195] | – | > 10000 nM | –
Cn1cccc(C(=O)NC2CCN(C(=O)[C@H]3CC[C@@](C(=O)N[C@H](Cc4ccccc4)C(=O)O)(c4ccccc4)c4ccccc43)CC2)c1=O [Co. No. 196] | – | > 10000 nM | –
Cn1cccc(C(=O)NC2CCN(C(=O)[C@H]3CC[C@@](C(=O)N[C@@H](Cc4ccc(O)cc4)C(=O)O)(c4ccccc4)c4ccccc43)CC2)c1=O [Co. No. 197] | – | > 10000 nM | –
Cn1cccc(C(=O)NC2CCN(C(=O)[C@H]3CC[C@@](C(=O)N[C@@H](CC(N)=O)C(=O)O)(c4ccccc4)c4ccccc43)CC2)c1=O [Co. No. 198] | – | > 10000 nM | –
CC(C)OC(=O)CCCCNC(=O)[C@@]1(c2ccccc2)CC[C@H](C(=O)N2CCC(NC(=O)c3cccn(C)c3=O)CC2)c2ccccc21 [Co. No. 227] | – | 228 nM | –
CCOC(=O)NCCCC[C@H](CC(=O)[C@@]1(c2ccccc2)CC[C@H](C(=O)N2CCC(NC(=O)c3cccn(C)c3=O)CC2)c2ccccc21)C(=O)OCC [Co. No. 232] | – | 3330 nM | –
COC(=O)[C@H](CCCCNC(=O)[C@@]1(c2ccccc2)CC[C@H](C(=O)N2CCC(NC(=O)c3cccn(C)c3=O)CC2)c2ccccc21)NC(C)=O [Co. No. 236] | – | 2670 nM | –
CCOC(=O)NCCCC[C@@H](NC(=O)[C@@]1(c2ccccc2)CC[C@H](C(=O)N2CCC(NC(=O)c3cccn(C)c3=O)CC2)c2ccccc21)C(=O)OCC [Co. No. 239] | – | 643 nM | –
COC(=O)[C@@H](CCCCNC(=O)OC(C)C)NC(=O)[C@@]1(c2ccccc2)CC[C@H](C(=O)N2CCC(NC(=O)c3cccn(C)c3=O)CC2)c2ccccc21 [Co. No. 240] | – | 286 nM | –
CC(C)OC(=O)NCCCC[C@@H](NC(=O)[C@@]1(c2ccccc2)CC[C@H](C(=O)N2CCC(NC(=O)c3cccn(C)c3=O)CC2)c2ccccc21)C(=O)OC(C)C [Co. No. 242] | – | 2360 nM | –
CCOC(=O)[C@]1(c2ccccc2)CC[C@@H](C(=O)N2CCC(NC(=O)c3ccccc3N3CCN(C)CC3)CC2)c2ccccc21 [Co. No. 268] | – | 14.5 nM | –
CCOC(=O)[C@]1(c2ccccc2)CC[C@@H](C(=O)N2CCC(N(C)C(=O)c3ccccc3OC)CC2)c2ccccc21 [Co. No. 270] | – | 14.1 nM | –

The next lines start with results.

IC50 [1] | IC50 [2] | Structure (SMILES) | other results
35.8 nM | > 10000 nM | COc1ccccc1C(=O)NC1CCN(C(=O)[C@@H]2CC[C@@](C(N)=O)(c3ccccc3)c3ccccc32)CC1 (single isomer, unassigned) [Co. No. 41] | –
1910 nM | – | CCCNC(=O)C1(c2ccccc2)CCC(CN2CCC(NC(=O)c3ccccc3)CC2)c2ccccc21 (centres unmarked) [Co. No. 5] | –
– | 2.82 nM | C=CCOC(=O)[C@]1(c2ccccc2)CC[C@@H](C(=O)N2CCC(NC(=O)c3ccccc3OC)CC2)c2ccccc21 [Co. No. 8] | pIC50 ([1]; pIC50 = -log IC50, listed as 8): 8.188
> 100 nM | 217 nM | CCNC(=O)[C@]1(c2ccccc2)CC[C@H](C(=O)N2CCC(NC(=O)c3ccccc3-c3ccc(C(F)(F)F)cc3)CC2)c2ccccc21 [Co. No. 11] | –
– | > 10000 nM | Cn1cccc(C(=O)NC2CCN(C(=O)[C@H]3CC[C@@](C(=O)N[C@H](C(=O)O)c4ccccc4)(c4ccccc4)c4ccccc43)CC2)c1=O [Co. No. 194] | –
– | 1140 nM | COC(=O)CCCNC(=O)[C@@]1(c2ccccc2)CC[C@H](C(=O)N2CCC(NC(=O)c3cccn(C)c3=O)CC2)c2ccccc21 [Co. No. 224] | –
– | 307 nM | COC(=O)CCCCCNC(=O)[C@@]1(c2ccccc2)CC[C@H](C(=O)N2CCC(NC(=O)c3cccn(C)c3=O)CC2)c2ccccc21 [Co. No. 228] | –
– | 170 nM | Cn1cccc(C(=O)NC2CCN(C(=O)[C@H]3CC[C@@](C(=O)NCCCCCC(=O)OC(C)(C)C)(c4ccccc4)c4ccccc43)CC2)c1=O [Co. No. 230] | –
– | > 10000 nM | CCOC(=O)[C@H](CCCCNC(=O)OC(C)C)NC(=O)[C@@]1(c2ccccc2)CC[C@H](C(=O)N2CCC(NC(=O)c3cccn(C)c3=O)CC2)c2ccccc21 [Co. No. 234] | –
– | 234 nM | COC(=O)[C@@H](CCCCNC(=O)OC(C)(C)C)NC(=O)[C@@]1(c2ccccc2)CC[C@H](C(=O)N2CCC(NC(=O)c3cccn(C)c3=O)CC2)c2ccccc21 [Co. No. 237] | –
– | 2330 nM | CCOC(=O)NCCCC[C@@H](NC(=O)[C@@]1(c2ccccc2)CC[C@H](C(=O)N2CCC(NC(=O)c3cccn(C)c3=O)CC2)c2ccccc21)C(=O)OC [Co. No. 238] | –
– | 243 nM | CCOC(=O)[C@@H](CCCCNC(=O)OC(C)C)NC(=O)[C@@]1(c2ccccc2)CC[C@H](C(=O)N2CCC(NC(=O)c3cccn(C)c3=O)CC2)c2ccccc21 [Co. No. 241] | –
– | 63.1 nM | CCOC(=O)[C@]1(c2ccccc2)CC[C@@H](C(=O)N2CCN(CC(=O)c3ccccc3OC)CC2)c2ccccc21 [Co. No. 259] | –
– | 8.45 nM | C=CCOC(=O)[C@@]1(c2ccccc2)CC[C@H](C(=O)N2CCC(NC(=O)c3ccccc3N3CCN(C)CC3)CC2)c2ccccc21 [Co. No. 269] | –
– | 2.94 nM | CCOC(=O)[C@]1(c2cccc(F)c2)CC[C@@H](C(=O)N2CCC(NC(=O)c3ccccc3OC)CC2)c2cc(F)ccc21 [Co. No. 271] | –
